In general, CC50 refers to the concentration that lowers cell viability or growth by half. Higher therefore signals better tolerance by the cells. As usually defined, the MBC is the smallest concentration meeting the test's criterion for killing. A higher MBC goes with weaker bactericidal potency. The MIC is the lowest concentration found to suppress growth. The low end stands for greater potency, the high end for weaker potency.

Ends that are not written are not given here.

A short description of one data set: LC50 on red blood cells. The format is cell-based. As to conditions: C57BL6; Mouse red blood cells. On the procedure: The mouse red blood cells are obtained from C57BL6 mouse bone marrow.
The peptides are incubated at 37° C., 5% CO2 in the presence of 500,000 red blood cells in RPMI medium at varied concentrations and at varied times. Peptide-free cells are used as the negative control and cells incubated for 5 min at 50° C. or in the presence of DMSO (30%) are used as the positive control. The LC50 is then calculated as being the concentration of DA2N and DA2NEQ peptides inducing the death of 50% of the red blood cells.

Data set [1] concerns psoriatic lesions and angiogenesis of skin. The data set can be described thus: Imiquimod-induced psoriasis model. In kind it is in vivo, balb/c mice. As to conditions: topical, 10 µg; no Imiquimod treatment. The procedure:
The DA2N and DA2NEQ peptides were tested in an Imiquimod-induced psoriasis model described by Van der Fits (Van der Fits et al. 2009. Journal of immunology. 182(9):5836-5845) on female balb/c mice, aged 7 to 8 weeks.
31 mg of commercial cream containing 5% Imiquimod (Aldara, 3 M Pharmaceuticals) is applied topically on about 2.5 cm of the previously shaven ventral region of the mice for 6 days. The first psoriatic lesions appear on the 3rd day. The peptides resuspended in the cream are applied topically or intravenously (10 µg) for the first 3 days of Imiquimod treatment. Mice with no Imiquimod treatment and/or with no peptide application were used as controls. On the 6th day, the mice are sacrificed and the skin sampled is analysed by microscopy (skin lesions and angiogenesis).

The test system of data set [2] is Bacillus subtilis CIP 52.65. Nature of the data set: MIC/MBC, growth inhibition in liquid medium (Example 2). The format is cell-based. The following applies: Table 2. The text has this: (§1) Escherichia coli (ATCC 8739, ATCC ML35p and P7 BLSE), Pseudomonas aeruginosa (ATCC 9027 and ATCC 27853), Klebsiella oxytoca (CIP 7932), Klebsiella pneumoniae (CIP 52.211), Salmonella enterica (CIP 8297), Yersinia ruckeri (ATCC 29473), Vibrio parahemolyticus (IFREMER 01 01/252), Staphylococcus aureus (ATCC 6538, ST 1065 and MRSA), Staphylococcus epidermidis (BM 3302), Listeria monocytogenes (SOR 100), Enterococcus faecalis (CIP A186, CIP 103015)), Kocuria rhizophila (ATCC 9341), Lactococcus garviae (ATCC 43921), Bacillus subtilis (CIP 52.65).
(§2) For each strain, a 5 ml pre-culture in LB medium is prepared by inoculating a colony of the bacterial strain of interest. The pre-culture is incubated at 37° C. under stirring overnight. The culture is subcultured (30 µL) in 5 mL. The culture concentration is evaluated by measuring the optical density at 620 nm. The concentration is adjusted by dilution so as to obtain a suspension with an OD of 0.05 at 620 nm.
(§3) The MIC is determined using a growth inhibition test in liquid medium. The MIC is defined as being the lowest peptide concentration capable of inhibiting the bacterial strain tested, after incubation for 18 h at 37° C. The test was carried out in a sterile microtitration plate containing 96 wells. A series of increasing concentrations of each peptide (0.2 to 100 µM) was prepared beforehand in sterile MilliQ water. In each well, 10 µL of peptide was incubated with 90 µL of bacterial suspension (10^7 cfu/mL) in yeast extract-free LB medium. The microplate was incubated at 37° C. for 18 h. The bacterial growth was evaluated by measuring the OD at 620 nm using a plate reader.
(§4) The negative growth inhibition control was obtained by replacing the solution containing the peptide by sterile MilliQ water. The positive control suitable for completely inhibiting the growth of the bacterial strains was obtained by replacing the solution containing the peptide by 10 µL of formaldehyde.
(§5) The results are interpreted by calculating the percentage of bacterial growth in each well according to the formula:
(§6) %Growth = (OD well - OD of T0)/(OD of T100-OD of T0)*100 where
(§7) • OD of T100 = OD of growth control (bacterial suspension free from sample under test, 100% growth), • OD of T0 = OD of sterility control (culture medium + bacterium + 10 µL formaldehyde, 0% growth) and • OD well = OD of well for which it is sought to calculate the growth percentage (bacterial suspension + peptide under test).
(§8) The MBC is defined as being the minimum peptide concentration leaving no surviving bacteria of the inoculum after incubation at 37° C. for 24 hours. This test consists of smearing the contents of the well wherein the peptide has inhibited bacterial growth on a Petri dish (LB agar), followed by incubation for 24 h at 37° C.

The subject of data set [3] is Escherichia coli ATCC 8739. The description is as above. The following applies: Table 2. In kind it is cell-based.
From the text: as §1, §2, §3, §4, §5, §6, §7, §8

For the next data set, the system named is Escherichia coli ML35p. The description is as above. In kind it is cell-based. As to conditions: Table 2.
From the text: as §1, §2, §3, §4, §5, §6, §7, §8

The subject of data set [4] is Klebsiella oxytoca CIP 7932. The data set is described as above. The format is cell-based. As to conditions: Table 2.
From the text: as §1, §2, §3, §4, §5, §6, §7, §8

The subject of data set [5] is Klebsiella pneumoniae CIP 5211. The description is as above. As to conditions: Table 2. The format is cell-based.
From the text: as §1, §2, §3, §4, §5, §6, §7, §8

The subject of data set [6] is Kocuria rhizophila ATCC 9341. The data set is described as above. The following applies: Table 2. In kind it is cell-based.
From the text: as §1, §2, §3, §4, §5, §6, §7, §8

Data set [7] concerns Pseudomonas aeruginosa ATCC 9027. Described as above. In kind it is cell-based. As to conditions: Table 2.
From the text: as §1, §2, §3, §4, §5, §6, §7, §8

In data set [8] the test system is Staphylococcus aureus ATCC 6538. The description is as above. The following applies: Table 2. In kind it is cell-based.
From the text: as §1, §2, §3, §4, §5, §6, §7, §8

Data set [9] deals with Staphylococcus aureus ST 1065. The description is as above. The format is cell-based. As to conditions: Table 2.
From the text: as §1, §2, §3, §4, §5, §6, §7, §8

The subject of data set [10] is Staphylococcus epidermidis BM 3302. The data set is described as above. The format is cell-based. As to conditions: Table 2.
From the text: as §1, §2, §3, §4, §5, §6, §7, §8

Consider ALWKTLLKKVGKVAGKAVLNAVTNMANQN-OH [DA2N], for which the CC50 in the data set “LC50 on red blood cells” worked out at 750 µM. Moreover, the “angiogenesis of healthy skin” value in data set [1] was “no effect on the angiogenesis of healthy skin”. For the same substance, the “effect on healthy skin” value in data set [1] is given as “no effect on healthy skin”. Besides, the minimum bactericidal concentration (MBC) in [2] turned out to be 6.25 µM; in data set [3] it was 3.12 µM; with Escherichia coli ML35p, 6.25 µM; in [4] it was 6.25 µM; in data set [6], 3.12 µM; in [7] it was 12.5 µM. For the same substance, the figures for the minimal bactericidal concentration (MBC) in data set [8], in data set [9] and in data set [10] were 6.25 µM, 12.5 µM and 12.5 µM, respectively. Further, the minimum inhibitory concentration (MIC) came out at 6.25 µM in data set [2]; 3.12 µM in data set [3]; 3.12 µM in the data set on Escherichia coli ML35p; 3.12 µM in data set [4]; 3.12 µM in data set [5]; 3.12 µM in [6]. The MIC in [7] is 12.5 µM; in data set [8] it was 6.25 µM; in [9], 12.5 µM; in data set [10], 1 µM.

“ALWKTLLKKVGKVAGKAVLNAVTNMANQNEQ [DA2NEQ, ALWKTLLKKVGKVAGKAVLNAVTNMANQNEQOH]”: the CC50 in the data set “LC50 on red blood cells” is 750 µM. Also, the “angiogenesis of healthy skin” value in data set [1] is “no effect on the angiogenesis of healthy skin”. Further, the “effect on healthy skin” value in data set [1] is reported as “no effect on healthy skin”. For the same substance, the MBC in [2] was 6.25 µM; in data set [3], 6.25 µM; in the data set with Escherichia coli ML35p, 6.25 µM; in data set [4] it was more than 100 µM; in data set [6], 6.25 µM; in data set [7] it was 25 µM. Moreover, the MBC is on record as 12.5 µM in data set [8], more than 100 µM in [9] and more than 100 µM in [10]. Also, the MIC came out at 6.25 µM in [2]; 3.12 µM in data set [3]; 6.25 µM against Escherichia coli ML35p; 12.5 µM in data set [4]; 3.12 µM in data set [5]; 6.25 µM in data set [6]. Moreover, the MIC is on record as 12.5 µM in data set [7], 12.5 µM in [8], more than 100 µM in data set [9] and more than 100 µM in [10].

The values above are taken from patent publication US20230192772A1, “ANTIMICROBIAL PEPTIDES AND USES THEREOF” (SORBONNE UNIVERSITE, priority 2016, published 2023).
